Literature values in patent US20250350689A1, “INTRAVENOUS DOFETILIDE AND USES THEREOF” (Hyloris Developments SA, priority 2023, published 2025).
Where “and” joins values, the source holds several entries; their conditions need not be identical. Identical values can stand only once. Like-named read-outs stand apart in the source and are kept apart here.

Legend:
[1] = not given; remark: listed apart in the source
[2] = clinical studies, life threatening arrhythmias
QTc interval = conditions: slope of QTc versus dofetilide plasma concentration, Sedgwick et al

CN(CCOc1ccc(NS(C)(=O)=O)cc1)CCc1ccc(NS(C)(=O)=O)cc1 [dofetilide]
plasma concentration (infusion of 3.0 μg/mL): 5.35 ng/mL
IV dofetilide kinetics (relationship between IV dose and serum concentration): linear
peak plasma concentration (single dose, 10 min. IV infusion of 1.5 μg/kg): 1.74 ng/mL and 1.7 ng/mL
plasma concentration Cmax ([1]; 500 μg oral dose, single dose): 1.9 ng/mL
time to reach a steady state concentration ([1]; oral dofetilide): at least 3 days
safety in patients with poor heart function / heart failure [2]: not to increase life threatening arrhythmias
safety in patients with poor heart function / heart failure ([2]; listed as Dofetilide): safe
QTc change per plasma concentration (QTc interval): 15 to 25 ms/ng/mL
